Measurements reported in patent publication US20230158025A1 (UNIVERSITY OF UTAH RESEARCH FOUNDATION, priority 2020, published 2023).
Where two headings read alike, the source gives them in different places.

How the values were obtained:
[1] = rat microsomal stability (RLM); settings: for half-life: rat, rat liver microsomes
recombinant human GALK1 = recombinant human GALK1 (Homo sapiens, UniProt P51570); test: hGALK1 biochemical activity assay (Kinase-Glo Plus, ATP depletion)
Procedure, shortened: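 Turnover is measured as ATP depletion by Kinase-Glo Plus luminescence after a 1 h room-temperature reaction. Compounds span 11 concentrations, 57.4 μM–0.97 nM, in final 20 mM HEPES pH 8.0 with 5 mM MgCl2. The substrate solution held 35 μM ATP; the added solution held 5 nM human or mouse GALK1 and 100 μM galactose.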

hGALK1m = target: T1, hGALK1m (Homo sapiens, UniProt P51570, E253A/K252A); test: in vitro hGALK1 activity assay of the structure-based optimisation (Example 12, Tables 17-20); type: biochemical; settings: for fold decrease of potency versus parent compound: loss of potency relative to the unsubstituted parent
T1 construct: made in house; host or cells: E. coli HMS174
T1 sequence (P51570 whole entry K252A/E253A): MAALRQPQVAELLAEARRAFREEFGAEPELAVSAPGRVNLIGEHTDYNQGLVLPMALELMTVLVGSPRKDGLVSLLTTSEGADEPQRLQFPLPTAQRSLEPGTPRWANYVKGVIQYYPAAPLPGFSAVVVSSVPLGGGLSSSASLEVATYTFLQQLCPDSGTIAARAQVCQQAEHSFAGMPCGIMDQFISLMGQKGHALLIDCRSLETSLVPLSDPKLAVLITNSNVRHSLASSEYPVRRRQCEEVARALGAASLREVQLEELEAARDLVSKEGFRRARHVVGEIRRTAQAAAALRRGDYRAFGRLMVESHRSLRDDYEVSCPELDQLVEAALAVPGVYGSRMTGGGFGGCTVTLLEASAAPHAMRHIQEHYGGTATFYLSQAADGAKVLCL

[2] = aqueous kinetic solubility
recombinant mouse GALK1 = recombinant mouse GALK1 (Mus musculus, UniProt Q9R0N0); test: mGALK1 biochemical activity assay (Kinase-Glo Plus, ATP depletion)
recombinant mouse GALK1, sequence (Q9R0N0 whole entry): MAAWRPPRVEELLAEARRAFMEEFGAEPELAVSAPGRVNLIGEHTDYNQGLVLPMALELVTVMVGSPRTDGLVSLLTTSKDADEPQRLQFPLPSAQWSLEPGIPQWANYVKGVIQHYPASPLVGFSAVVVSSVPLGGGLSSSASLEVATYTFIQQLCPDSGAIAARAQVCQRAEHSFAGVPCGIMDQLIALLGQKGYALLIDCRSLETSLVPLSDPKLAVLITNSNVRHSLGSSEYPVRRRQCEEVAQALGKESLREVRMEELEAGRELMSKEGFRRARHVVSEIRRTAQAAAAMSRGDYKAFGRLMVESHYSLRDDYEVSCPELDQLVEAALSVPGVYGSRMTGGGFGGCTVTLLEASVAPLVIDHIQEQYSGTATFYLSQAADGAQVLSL
Procedure, shortened: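 Recombinant GALK1 (5 nM) with 100 μM galactose; GALK1 turnover read as ATP depletion by Kinase-Glo Plus luminescence. Reaction ran 1 h at room temperature before detection reagent was added.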

[3] = PAMPA, ADME P: PAMPA permeability (class), Tables 17-19, class probably colour-coded, colour lost
[4] = Tables 2-15, 35 μM ATP, 100 μM galactose, 1 h, bracketed figure after some values (e.g. −1.2) is undefined and not reported, read-out: hGALK IC50
[5] = recombinant human GALK1, Kinase-Glo Plus ATP depletion, read-out: hGALK
[6] = Tables 18-19, read-out: Max Response (%)
[7] = Tables 18-20 and text of Example 12
[8] = Tables 2-15, 35 μM ATP, 100 μM galactose, 1 h, bracketed figure after some values is undefined and not reported, read-out: mGALK IC50
[9] = recombinant mouse GALK1, Kinase-Glo Plus ATP depletion, read-out: mGALK
[10] = Tables 18-19 and text of Example 12
[11] = Tables 2-15, 35 μM ATP, 100 μM galactose, 1 h, bracketed figure after some values is undefined and not reported
[12] = recombinant mouse GALK1, Kinase-Glo Plus ATP depletion

recombinant human GALK1, sequence (P51570 whole entry): as the sequence (P51570 whole entry K252A/E253A) above, with A252K, A253E counted along it

Row | SMILES | Papp (PAMPA permeability; [3]) [×10⁻⁶ cm/s] | Metab. Stabil. (m) ([1]; microsomal half-life) | half-life [1] [min] | IC50 (recombinant human GALK1; [4]) [µM] | IC50 (recombinant human GALK1; [5]) [µM] | Emax (hGALK1m; [6]) [%] | IC50 (hGALK1m; [7]) [µM] | Sol. [2] [µg/mL] | IC50 (recombinant mouse GALK1; [8]) [µM] | IC50 (recombinant mouse GALK1; [9]) [µM] | Perm. (1 × 10^−6 cm/sec) (PAMPA permeability) | change of potency versus parent compound (in words) (hGALK1m) | IC50 (hGALK1m; [10]) [µM] | other results
1 | CC1=C(C(=O)Nc2cc(C(=O)O)ccn2)C(c2ccc(C)cc2Cl)N=C(Nc2nc3ccc(F)cc3o2)N1 (racemic) [Compound 50, 2-(4-(2-chloro-4-methylphenyl)-2-((6-fluorobenzo[d]oxazol-2-yl)amino)-6-methyl-1,4-dihydropyrimidine-5-carboxamido)isonicotinic acid] | < 10 | >30 | < 10 | 0.39 | 0.39 | 100 | 0.136 | 2.8 | 3.06 | 3.06 |  |  |  | Papp (PAMPA permeability; PAMPA, Perm. (1 × 10^−6 cm/sec)): < 1.5 ×10⁻⁶ cm/s; fold improvement of potency (IC50) versus parent compound (hGALK1m; increase in potency relative to the unsubstituted parent): 2 fold
2 | CC1=C(C(=O)Nc2cc(C(=O)O)ccn2)C(c2ccccc2Cl)N=C(Nc2nc3cc(C)ccc3o2)N1 (stereo not shown) [Compound 4, 2-(4-(2-chlorophenyl)-6-methyl-2-((5-methylbenzo[d]oxazol-2-yl)amino)-1,4-dihydropyrimidine-5-carboxamido)isonicotinic acid] | < 10 | >30 | < 10 | 1.37 |  | 100 | 0.611 | <1 | 3.06 | 3.06 | <1 1 × 10^−6 cm/sec | slightly improved the potency |  | 
3 | CC1=C(C(=O)Nc2cc(C(=O)O)ccn2)C(c2ccccc2Cl)N=C(Nc2nc3ccc(Cl)cc3o2)N1 (stereo not shown) [Compound 14, 2-(2-((6-chlorobenzo[d]oxazol-2-yl)amino)-4-(2-chlorophenyl)-6-methyl-1,4-dihydropyrimidine-5-carboxamido)isonicotinic acid] | < 10 | >30 | < 10 |  | 1.93 | 100 |  | 6.3 | 6.11 | 6.11 |  |  | 2.25 | fold decrease of potency versus parent compound (hGALK1m): more than 2 fold
4 | COc1ccc(C2N=C(Nc3nc4ccc(F)cc4o3)NC(C)=C2C(=O)Nc2cc(C(=O)O)ccn2)c(Cl)c1 (racemic) [Compound 46, 2-(4-(2-chloro-4-methoxyphenyl)-2-((6-fluorobenzo[d]oxazol-2-yl)amino)-6-methyl-1,4-dihydropyrimidine-5-carboxamido)isonicotinic acid] | < 10 | >30 | < 10 | 0.43 | 0.43 | 100 | 0.3 | 8.3 | 3.06 | 3.06 |  | little effect |  | 
5 | CC1=C(C(=O)Nc2cc(C(=O)O)ccn2)C(c2ccc(Cl)cc2Cl)N=C(Nc2nc3ccc(F)cc3o2)N1 (stereo not shown) [Compound 47, 2-(4-(2,4-dichlorophenyl)-2-((6-fluorobenzo[d]oxazol-2-yl)amino)-6-methyl-1,4-dihydropyrimidine-5-carboxamido)isonicotinic acid] | < 10 | >30 | < 10 |  | 1.09 | 85 | 0.345 | <1 | 3.85 | 3.85 | <1 1 × 10^−6 cm/sec | little effect on the potency |  | 
6 | CC1=C(C(=O)NCc2nccn2C)C(c2ccccc2Cl)N=C(Nc2nc3ccccc3o2)N1 (stereo not shown) [Compound 231] | < 10 |  | < 10 |  | 15.3 |  |  |  | 13.7 | 13.7 |  |  |  | Perm. (1 × 10^−6 cm/sec) (PAMPA permeability; PAMPA): >1113 1 × 10^−6 cm/sec; Metab. Stabil. (m) ([1]; microsomal stability half-life): 6.415 m; Emax (hGALK1m; 1 h, Table 17, read-out: Efficacy): 94%; IC50 (hGALK1m; Table 17, amide group optimization, no unit in table): 11 µM; Sol. ([2]; aqueous kinetic solubility): 23.0 µg/mL
7 | CC1=C(C(=O)Nc2cc(C(=O)O)ccn2)C(c2cccc(C(F)(F)F)c2)N=C(Nc2nc3ccc(F)cc3o2)N1 (stereo not shown) [Compound 77, 2-(2-((6-fluorobenzo[d]oxazol-2-yl)amino)-6-methyl-4-(3-(trifluoromethyl)phenyl)-1,4-dihydropyrimidine-5-carboxamido)isonicotinic acid] | < 10 | >30 | < 10 | 19.3 | 19.3 | 90 |  | 60.1 |  |  | <1 1 × 10^−6 cm/sec | compromised the potency | > 15 | mGALK IC50 (recombinant mouse GALK1; [11]): inactive; mGALK (μM) (recombinant mouse GALK1; [12]): in- active
8 | CC1=C(C(=O)Nc2cc(C(=O)O)ccn2)C(c2cccc(C(N)=O)c2)N=C(Nc2nc3ccc(F)cc3o2)N1 (stereo not shown) [Compound 76, 2-(4-(3-carbamoylphenyl)-2-((6-fluorobenzo[d]oxazol-2-yl)amino)-6-methyl-1,4-dihydropyrimidine-5-carboxamido)isonicotinic acid] | < 10 | >30 | < 10 | 7.69 | 7.69 | 90 |  | >78 | 21.7 | 21.7 | <1 1 × 10^−6 cm/sec | significantly impaired the potency | 3.8 | 
9 | COc1cccc2nc(NC3=NC(c4ccccc4Cl)C(C(=O)Nc4cc(C(=O)O)ccn4)=C(C)N3)oc12 (stereo not shown) [Compound 22, 2-(4-(2-chlorophenyl)-2-((7-methoxybenzo[d]oxazol-2-yl)amino)-6-methyl-1,4-dihydropyrimidine-5-carboxamido)isonicotinic acid] | < 10 | >30 | < 10 |  | 21.7 | 80 |  | 65.7 |  |  | <1 1 × 10^−6 cm/sec | greatly compromised the potencies | > 15 | fold decrease of potency versus parent compound (hGALK1m): 3.6 fold; mGALK IC50 (recombinant mouse GALK1; [11]): inactive; mGALK (μM) (recombinant mouse GALK1; [12]): in- active
10 | CC1=C(C(=O)Nc2cc(C(=O)O)ccn2)C(c2cccc(S(N)(=O)=O)c2)N=C(Nc2nc3ccc(F)cc3o2)N1 (stereo not shown) [Compound 78, 2-(2-((6-fluorobenzo[d]oxazol-2-yl)amino)-6-methyl-4-(3-sulfamoylphenyl)-1,4-dihydropyrimidine-5-carboxamido)isonicotinic acid] | < 10 | >30 | < 10 | 17.2 | 17.2 | 75 |  | >84 | 38.5 | 38.5 |  | significantly impaired the potency | > 15 | 
